# Laboratory results reported in US20100087516A1, “ANTIBACTERIAL MACROLACTIN A THAT BACILLUS POLYFERMENTICUS KJS-2 PRODUCED IN” (priority 2007, published 2010).
# Tests used:
# Heat and pH stability = assay type: physicochemical
# VRE5 = test: Bioassay at a gradient of concentration on TSB agar medium; assay type: cell-based, vancomycin-resistant enterococci; details: 10 μl of solution in 50% acetone
# HIV = details: cited from earlier work
# Burkholderia cepacia = details: cited from earlier work
# [1] = system: vancomycin-resistant enterococci (VRE); details: cited from earlier work
# [2] = system: B16-F10 murine melanoma cancer cell; details: cited from earlier work
# Herpes simplex = details: cited from earlier work
# [3] = system: biosynthesis of cholesterol; details: cited from earlier work
structure (smiles),measurement,setting,value
CC1CCC/C=C/C=C/C(O)CC(O)C/C=C\C=C\C(O)C/C=C/C=C\C(=O)O1 (stereo not drawn) [Macrolactin A],heat stability,Heat and pH stability,excellent heat stability
same,stability in weak acidic and neutral environments,Heat and pH stability; weak acidic and neutral environments,very stable
same,concentration of solution that inhibits VRE5 on TSB agar medium,VRE5,above 1.25 mg/ml
same,antiviral activity against HIV,HIV,antiviral activity
same,antibiotic activity against Burkholderia cepacia,Burkholderia cepacia,antibiotic activity only against MRSA
same,antibiotic activity against VRE,[1],antibiotic activity only against MRSA
same,cytotoxicity on the B16-F10 murine melanoma cancer cell,[2],shows cytotoxicity
same,antiviral activity against Herpes simplex,Herpes simplex,antiviral activity
same,inhibitory effect on the biosynthesis of cholesterol,[3],inhibitory effect
